Assay: Solubility evaluation: solution stirred 0.5 hours, visually inspected for insolubles
Type: physicochemical
Description: Solutions were obtained by adding the sulfur-containing compound of the amount described in Table 1 or Table 1a to the amount described in Table 1 or Table 1a of the organic solvent or the radically polymerizable monomer.
The solutions obtained were stirred with a magnetic stirrer for 0.5 hours and were then visually inspected for the presence of insolubles. The solutions were evaluated as ◯ when the solution was transparent and free from insolubles, as Δ when the solution was turbid but free from insolubles, and as x when insolubles were present. The solubility evaluations in Tables 3 to 6 are also based on the same criteria.

[1] = 2.6 parts sulfur-containing compound in 97.4 parts IPA
[2] = 2.6 parts sulfur-containing compound in 97.4 parts MMA
[3] = 2.6 parts sulfur-containing compound in 97.4 parts acetone
[4] = 20 parts sulfur-containing compound in 80 parts acetone
[5] = added to acetone at a concentration of 20 mass %
[6] = 0.65 parts sulfur-containing compound in 99.35 parts IPA

**Q.** What does the source list for C=C(C)C(=O)OCCCCCCOC(=O)CCC1NC(=S)NC1=O (stereo not drawn) [6-THPHM, 6-((3-(5-oxo-2-thioxoimidazolidin-4-yl)propanoyl)oxy)hexyl methacrylate]?
**A.** Solubility [1]: ∘; Solubility [2]: ∘; Solubility [3]: ∘

**Q.** For C=C(C)C(=O)OCCCCCCCCCC=C1NC(=S)NC1=O [a25, 10-(5-oxo-2-thioxoimidazolidin-4-ylidene)decyl methacrylate], which Solubility [1] is on record?
**A.** Its Solubility is “∘”.

**Q.** And the Solubility [2]?
**A.** The Solubility was “∘”.

**Q.** What about the Solubility [4] of the same molecule?
**A.** Its Solubility is “∘”.

**Q.** With C=Cc1ccc(CN(CCC)c2nc(=S)[nH]c(=S)[nH]2)cc1 [VBATDT, 6-(4-Vinylbenzyl-n-propyl)amino-1,3,5-triazine-2,4-dithione, reference compound] as the molecule, how does the Solubility (0.5 parts sulfur-containing compound in 99.5 parts acetone) read?
**A.** Its Solubility is “∘”.

**Q.** And the Solubility [3]?
**A.** The Solubility was “∘”.

**Q.** What about the “solubility (in words)” value [5] of the same molecule?
**A.** Its value is “generated insolubles”.

**Q.** What about the “solubility (in words)” value (with respect to IPA and MMA) of the same molecule?
**A.** Its value is “low solubility”.

**Q.** With C=C(C)C(=O)OCCOC(=O)CCC1NC(=S)NC1=O (stereo not drawn) [2-THPEM, 2-((3-(5-oxo-2-thioxoimidazolidin-4-yl)propanoyl)oxy)ethyl methacrylate] as the molecule, how does the Solubility [1] read?
**A.** The Solubility was “∘”.

**Q.** And the Solubility [2]?
**A.** The Solubility was “∘”.

**Q.** And the Solubility [3]?
**A.** Its Solubility is “∘”.

**Q.** For C=C(C)C(=O)OCCCCCCCC=C1NC(=S)NC1=O [a23, 8-(5-oxo-2-thioxoimidazolidin-4-ylidene)octyl methacrylate], which Solubility [1] is on record?
**A.** The Solubility was “∘”.

**Q.** What about the Solubility [2] of the same molecule?
**A.** Its Solubility is “∘”.

**Q.** What about the Solubility [4] of the same molecule?
**A.** The Solubility was “∘”.

**Q.** What does the source list for C=C(C)C(=O)OCCCCCCC1NC(=S)NC1=O (stereo not drawn) [a20, 6-(5-oxo-2-thioxoimidazolidin-4-yl)hexyl methacrylate]?
**A.** Solubility [1]: ∘; Solubility [2]: ∘; Solubility [4]: ∘

**Q.** What does the source list for C=C(C)C(=O)OCCCCCC=C1NC(=S)NC1=O [a21, 6-(5-oxo-2-thioxoimidazolidin-4-ylidene)hexyl methacrylate]?
**A.** Solubility [6]: ∘; Solubility [2]: ∘; Solubility (10 parts sulfur-containing compound in 90 parts acetone): ∘

**Q.** Which Solubility [6] does the source give for C=C(C)C(=O)OCCCCCCCCCCOC(=O)CCC1NC(=S)NC1=O (stereo not drawn) [10-THPDM, 10-((3-(5-oxo-2-thioxoimidazolidin-4-yl)propanoyl)oxy)decyl methacrylate] here?
**A.** The Solubility was “∘”.

**Q.** And the Solubility (0.65 parts sulfur-containing compound in 99.35 parts MMA)?
**A.** The Solubility was “∘”.

**Q.** What about the Solubility (0.65 parts sulfur-containing compound in 99.35 parts acetone) of the same molecule?
**A.** The Solubility was “∘”.

**Q.** And the Solubility [1]?
**A.** Its Solubility is “∘”.

**Q.** What about the Solubility [2] of the same molecule?
**A.** The Solubility was “∘”.

**Q.** What about the Solubility [3] of the same molecule?
**A.** Its Solubility is “∘”.

**Q.** And the Solubility [4]?
**A.** The Solubility was “∘”.

**Q.** And the “solubility (in words)” value [5]?
**A.** The value was “dissolved completely”.

**Q.** What does the source list for C=C(C)C(=O)OCCCCOC(=O)CCC1NC(=S)NC1=O (stereo not drawn) [4-THPBM, 4-((3-(5-oxo-2-thioxoimidazolidin-4-yl)propanoyl)oxy)butyl methacrylate]?
**A.** Solubility [1]: ∘; Solubility [2]: ∘; Solubility [3]: ∘

**Q.** What does the source list for C=C(C)C(=O)OCCCCCCCCCCC1NC(=S)NC1=O (stereo not drawn) [a24, 10-(5-oxo-2-thioxoimidazolidin-4-yl)decyl methacrylate]?
**A.** Solubility [1]: ∘; Solubility [2]: ∘; Solubility [4]: ∘
